The test has as its system Nucleic Acid.

Description: Binding affinity to DNA intercalator Acridine orange.

Regarding `Cn1c(=O)c2[nH]c(=O)[nH]c2n(C)c1=O`, the K ass turned out to be 38.5 M⁻¹. Consider `Oc1nc(O)c2nc(O)[nH]c2n1`, for which the K ass was 0 M⁻¹. The figure for `Clc1ncnc2[nH]cnc12` is 0 M⁻¹.

As for `Cn1c(=O)[nH]c(=O)c2[nH]cnc21`, the K ass came to 10 M⁻¹.

`CN1CNc2[nH]c(=O)n(C)c(=O)c21` yielded a K ass of 155 M⁻¹. The figure for `Cn1c(=O)[nH]c2[nH]cnc2c1=O` is 79.2 M⁻¹; for `Cn1c2c(c(=O)n(C)c1=O)NCN2.N/C=C/N` it is 596 M⁻¹; for `Cc1ncnc2nc[nH]c12` it is 0 M⁻¹. The figure for `c1nc2c[nH]cnc-2n1` is 2 M⁻¹; for `Nc1nc2[nH]cnc2c(=O)[nH]1` it is 0 M⁻¹; for `O=c1[nH]c(=O)c2nc[nH]c2[nH]1` it is 0 M⁻¹.

On to `Cn1c(O)nc2[nH]c(=O)[nH]c(=O)c21`, for which the K ass was 0 M⁻¹. The figure for `Cn1c(=O)c2[nH]cnc2n(C)c1=O` is 157 M⁻¹. `Cn1c(=O)c2c(n(C)c1=O)n(C)c(=O)n2C`: the K ass was 552 M⁻¹.

(Values after ChEMBL document CHEMBL1134323, “Structural basis for the binding affinity of xanthines with the DNA intercalator acridine orange” (J Med Chem, 2001).)
